Each structure is given as a SMILES string.

By IC50 is commonly meant the midpoint of a concentration-inhibition curve.

Experiment [1] concerns HEK293 CriptoFC 1B8 cell line. Briefly: Cripto-FC expression by flow cytometry, concentration response. To be noted: Homo sapiens, Cripto-FC model protein, 10 point concentration response, top concentration 6 μM, read-out: pAC50 for Improved Protein Expression, Cripto-FC (converted). The format is cell-based. The method, then: Human Embryonic Kidney (HEK) cells, Expi293F cell line, were co-transfected using Expifectamine with vectors for targeted integration of one of three model proteins, Cripto-Fc, PLAP and hGFRα2, and a vector expressing Zinc Finger Nucelases that target the AAVS1 locus in the genome. As shown below in Table 3, Cripto-Fc served as a high volume expressing protein, PLAP a medium expressing protein, and hGFRα2 as a low expressing protein. After 48 hours, selection with puromycin blasticidin were applied to enrich for cells with the vectors integrated. After 14 days, cells were sorted by flow cytometry as single cells in 96 well plates. After single colonies were isolated the cells were expanded and analyzed to determine the gene copy number of the recombinant target gene in each clone. […]
To confirm hits from the primary screen, the available positive hits were subjected to the counter screening without addition of antibody-conjugates to remove flourescent compounds. In parallel, a 10 point concentration response curve with a top concentration of 6 μM for each of the compounds was determined. Only compounds that lacked inherent fluorescence, and increased protein expression with at least 30% in a dose-dependent mariner were counted as confirmed hits. […]
A general note: Flow cytometry measures light scatter and fluorescence of single cells or particles in a stream.

In a further experiment the test system is HEK293 PLAP cell line. Briefly: PLAP expression by secreted enzymatic activity (p-Nitrophenyl phosphate, 405 nm). The experiment is classed as cell-based. To be noted: Homo sapiens, PLAP model protein, enzymatic activity readout, read-out: pAC50 for Improved Protein Expression, PLAP (converted). As to the method: An additional study was performed on different cells expressing GRFα2 and PLAP. The same assay performed on HEk293 CriptoFC 1B8 was performed on a cell line containing a single gene copy of GFRA2. […] The activity measurement for PLAP is based on the degradation of p-Nitrophenyl phosphate to p-Nitrophenyl which can be followed as an increase in absorbance at 405 nm.

For the next experiment, the target named is T1, ULK1 (Homo sapiens, UniProt O75385).
T1 sequence (O75385 1-1050): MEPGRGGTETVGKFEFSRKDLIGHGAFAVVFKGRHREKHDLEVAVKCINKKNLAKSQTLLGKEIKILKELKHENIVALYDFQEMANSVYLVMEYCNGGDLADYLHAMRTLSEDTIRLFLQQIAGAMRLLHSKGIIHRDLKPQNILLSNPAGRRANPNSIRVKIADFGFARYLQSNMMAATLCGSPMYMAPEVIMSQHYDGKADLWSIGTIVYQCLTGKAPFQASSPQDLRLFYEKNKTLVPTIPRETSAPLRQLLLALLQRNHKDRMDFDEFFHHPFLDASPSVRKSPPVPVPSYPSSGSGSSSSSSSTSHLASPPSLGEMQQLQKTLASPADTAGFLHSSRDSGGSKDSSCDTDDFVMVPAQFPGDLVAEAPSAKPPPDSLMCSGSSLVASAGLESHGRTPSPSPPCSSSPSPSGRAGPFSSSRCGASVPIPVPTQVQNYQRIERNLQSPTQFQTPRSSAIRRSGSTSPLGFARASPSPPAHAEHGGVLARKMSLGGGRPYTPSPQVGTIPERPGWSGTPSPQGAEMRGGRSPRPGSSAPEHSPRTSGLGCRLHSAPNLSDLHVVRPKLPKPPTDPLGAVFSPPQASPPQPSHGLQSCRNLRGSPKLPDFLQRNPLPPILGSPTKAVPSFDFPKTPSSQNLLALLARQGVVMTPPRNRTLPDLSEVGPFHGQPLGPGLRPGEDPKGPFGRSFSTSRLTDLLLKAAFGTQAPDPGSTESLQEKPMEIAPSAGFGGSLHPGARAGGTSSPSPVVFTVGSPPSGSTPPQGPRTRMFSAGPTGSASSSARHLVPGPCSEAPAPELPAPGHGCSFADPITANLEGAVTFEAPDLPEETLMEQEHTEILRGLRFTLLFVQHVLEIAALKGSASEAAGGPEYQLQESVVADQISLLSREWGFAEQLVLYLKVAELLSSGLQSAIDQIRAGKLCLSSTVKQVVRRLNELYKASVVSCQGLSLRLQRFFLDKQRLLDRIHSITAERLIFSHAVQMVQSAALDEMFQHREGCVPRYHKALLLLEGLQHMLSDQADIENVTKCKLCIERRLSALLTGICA
To be noted: cited from earlier work.

In the case of `CN1CCc2cc(Nc3ncc(C4CC4)c(NCCCNC(=O)C4CCC4)n3)ccc2C1` [MRT68921], the AC50 was 79.4 nM in experiment [1] and 60.3 nM with HEK293 PLAP cell line. Further, the IC50 at ULK1 was approximately 2.9 nM.

The values above are taken from patent publication US20200370056A1, “CELL LINES AND METHODS FOR INCREASED PROTEIN PRODUCTION” (ASTRAZENECA AB, priority 2017, published 2020).
